Source: PubChem BioAssay (NCI)
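1) Cells in 96-well plates. 2) Compound, 48 h, 5 concentrations. 3) Linear interpolation between surrounding doses. 4) Unreached endpoint = highest concentration. Abbreviation: GI50, concentration required for 50% inhibition of growth. TGI is the concentration that stops growth completely.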

Legend:
Assay in all cases: NCI tumour cell line growth inhibition, 48 h
T-47D breast = system: T-47D breast
NCI-H522 lung = system: NCI-H522 lung
RXF 393 renal = system: RXF 393 renal
HCC-2998 colon = system: HCC-2998 colon
HCT-116 colon = system: HCT-116 colon
TK-10 renal = system: TK-10 renal
HOP-62 NSCLC = system: HOP-62 NSCLC
CCRF-CEM leukemia = system: CCRF-CEM leukemia
SK-MEL-2 melanoma = system: SK-MEL-2 melanoma
BT-549 breast = system: BT-549 breast
SF-295 CNS = system: SF-295 CNS
MDA-MB-435 = system: MDA-MB-435
SK-MEL-28 melanoma = system: SK-MEL-28 melanoma
SNB-75 CNS = system: SNB-75 CNS
SF-539 CNS = system: SF-539 CNS
HCT-15 colon = system: HCT-15 colon
COLO 205 colon = system: COLO 205 colon
OVCAR-3 ovarian = system: OVCAR-3 ovarian
MDA-MB-231 breast = system: MDA-MB-231 breast
NCI/ADR-RES ovarian = system: NCI/ADR-RES ovarian
HS 578T breast = system: HS 578T breast
U251 CNS = system: U251 CNS
K-562 leukemia = system: K-562 leukemia
CAKI-1 renal = system: CAKI-1 renal
SN12C renal = system: SN12C renal
OVCAR-5 ovarian = system: OVCAR-5 ovarian
MOLT-4 leukemia = system: MOLT-4 leukemia
MCF7 breast = system: MCF7 breast
HT29 colon = system: HT29 colon
A498 renal = system: A498 renal
HOP-92 NSCLC = system: HOP-92 NSCLC
SR leukemia = system: SR leukemia
SNB-19 CNS = system: SNB-19 CNS
ACHN renal = system: ACHN renal
PC-3 prostate = system: PC-3 prostate
RPMI-8226 leukemia = system: RPMI-8226 leukemia
KM12 colon = system: KM12 colon
IGROV1 ovarian = system: IGROV1 ovarian
NCI-H23 lung = system: NCI-H23 lung
SK-MEL-5 melanoma = system: SK-MEL-5 melanoma
LOX IMVI melanoma = system: LOX IMVI melanoma
HL-60(TB) leukemia = system: HL-60(TB) leukemia
UACC-62 melanoma = system: UACC-62 melanoma
SK-OV-3 ovarian = system: SK-OV-3 ovarian
SF-268 CNS = system: SF-268 CNS
UO-31 renal = system: UO-31 renal
NCI-H226 lung = system: NCI-H226 lung
DU-145 prostate = system: DU-145 prostate
UACC-257 melanoma = system: UACC-257 melanoma
786-0 renal = system: 786-0 renal
EKVX NSCLC = system: EKVX NSCLC
OVCAR-4 ovarian = system: OVCAR-4 ovarian
SW-620 colon = system: SW-620 colon

c1ccc(-c2n(Cc3ccc4ccccc4c3)c3c4ccccc4c4ccccc4c3[n+]2Cc2ccc3ccccc3c2)cc1
GI50 (T-47D breast): 367 nM
TGI (T-47D breast): 1840 nM
GI50 (NCI-H522 lung): 340 nM
TGI (NCI-H522 lung): 1630 nM
GI50 (RXF 393 renal): 280 nM
TGI (RXF 393 renal): 1030 nM
GI50 (HCC-2998 colon): 407 nM
TGI (HCC-2998 colon): 1580 nM
GI50 (HCT-116 colon): 183 nM
TGI (HCT-116 colon): 1140 nM
GI50 (TK-10 renal): 468 nM
TGI (TK-10 renal): 2000 nM
GI50 (HOP-62 NSCLC): 358 nM
TGI (HOP-62 NSCLC): 1590 nM
GI50 (CCRF-CEM leukemia): 357 nM
TGI (CCRF-CEM leukemia): 1750 nM
GI50 (SK-MEL-2 melanoma): 294 nM
TGI (SK-MEL-2 melanoma): 853 nM
GI50 (BT-549 breast): 316 nM
TGI (BT-549 breast): 1290 nM
GI50 (SF-295 CNS): 282 nM
TGI (SF-295 CNS): 1110 nM
GI50 (MDA-MB-435): 340 nM
TGI (MDA-MB-435): 1250 nM
GI50 (SK-MEL-28 melanoma): 569 nM
TGI (SK-MEL-28 melanoma): 1870 nM
GI50 (SNB-75 CNS): 303 nM
TGI (SNB-75 CNS): 1400 nM
GI50 (SF-539 CNS): 375 nM
TGI (SF-539 CNS): 1400 nM
GI50 (HCT-15 colon): 966 nM
TGI (HCT-15 colon): 2630 nM
GI50 (COLO 205 colon): 267 nM
TGI (COLO 205 colon): 795 nM
GI50 (OVCAR-3 ovarian): 351 nM
TGI (OVCAR-3 ovarian): 1230 nM
GI50 (MDA-MB-231 breast): 313 nM
TGI (MDA-MB-231 breast): 1060 nM
GI50 (NCI/ADR-RES ovarian): 1630 nM
TGI (NCI/ADR-RES ovarian): 3660 nM
GI50 (HS 578T breast): 434 nM
TGI (HS 578T breast): 2050 nM
GI50 (U251 CNS): 312 nM
TGI (U251 CNS): 1560 nM
GI50 (K-562 leukemia): 271 nM
TGI (K-562 leukemia): 1180 nM
GI50 (CAKI-1 renal): 389 nM
TGI (CAKI-1 renal): 1520 nM
GI50 (SN12C renal): 323 nM
TGI (SN12C renal): 1210 nM
GI50 (OVCAR-5 ovarian): 423 nM
TGI (OVCAR-5 ovarian): 1700 nM
GI50 (MOLT-4 leukemia): 377 nM
TGI (MOLT-4 leukemia): 1390 nM
GI50 (MCF7 breast): 304 nM
TGI (MCF7 breast): 1360 nM
GI50 (HT29 colon): 179 nM
TGI (HT29 colon): 1380 nM
GI50 (A498 renal): 337 nM
TGI (A498 renal): 1230 nM
GI50 (HOP-92 NSCLC): 211 nM
TGI (HOP-92 NSCLC): 740 nM
GI50 (SR leukemia): 245 nM
TGI (SR leukemia): 825 nM
GI50 (SNB-19 CNS): 364 nM
TGI (SNB-19 CNS): 1450 nM
GI50 (ACHN renal): 708 nM
TGI (ACHN renal): 1930 nM
GI50 (PC-3 prostate): 313 nM
TGI (PC-3 prostate): 1220 nM
GI50 (RPMI-8226 leukemia): 261 nM
TGI (RPMI-8226 leukemia): 1040 nM
GI50 (KM12 colon): 395 nM
TGI (KM12 colon): 1510 nM
GI50 (IGROV1 ovarian): 192 nM
TGI (IGROV1 ovarian): 1340 nM
GI50 (NCI-H23 lung): 228 nM
TGI (NCI-H23 lung): 790 nM
GI50 (SK-MEL-5 melanoma): 203 nM
TGI (SK-MEL-5 melanoma): 437 nM
GI50 (LOX IMVI melanoma): 177 nM
TGI (LOX IMVI melanoma): 355 nM
GI50 (HL-60(TB) leukemia): 157 nM
TGI (HL-60(TB) leukemia): 380 nM
GI50 (UACC-62 melanoma): 343 nM
TGI (UACC-62 melanoma): 1400 nM
GI50 (SK-OV-3 ovarian): 317 nM
TGI (SK-OV-3 ovarian): 1120 nM
GI50 (SF-268 CNS): 441 nM
TGI (SF-268 CNS): 1840 nM
GI50 (UO-31 renal): 1550 nM
TGI (UO-31 renal): 3220 nM
GI50 (NCI-H226 lung): 408 nM
TGI (NCI-H226 lung): 1850 nM
GI50 (DU-145 prostate): 406 nM
TGI (DU-145 prostate): 1520 nM
GI50 (UACC-257 melanoma): 328 nM
TGI (UACC-257 melanoma): 1240 nM
GI50 (786-0 renal): 337 nM
TGI (786-0 renal): 1340 nM
GI50 (EKVX NSCLC): 552 nM
TGI (EKVX NSCLC): 2030 nM
GI50 (OVCAR-4 ovarian): 298 nM
TGI (OVCAR-4 ovarian): 1270 nM
GI50 (SW-620 colon): 329 nM
TGI (SW-620 colon): 1370 nM
